Laboratory results from paper PMC3375280 (PLoS ONE, 2012).
Residue numbers refer to the chain shown, from its start.

Tests used:
[1] = molecular target: T1, AT1 S105A mutant receptor (Rattus norvegicus, UniProt P25095, S105A); experiment: competition binding, S105A mutant; settings: for Kd: S105A (S105 in the source), COS1 membranes, read-out: Binding affinity (Kd); for Kd ratio relative to WT (in parentheses): S105A / WT
T1 construct: expressed in transfected cells; host or cells: COS1
T1 sequence (P25095 1-359 S105A): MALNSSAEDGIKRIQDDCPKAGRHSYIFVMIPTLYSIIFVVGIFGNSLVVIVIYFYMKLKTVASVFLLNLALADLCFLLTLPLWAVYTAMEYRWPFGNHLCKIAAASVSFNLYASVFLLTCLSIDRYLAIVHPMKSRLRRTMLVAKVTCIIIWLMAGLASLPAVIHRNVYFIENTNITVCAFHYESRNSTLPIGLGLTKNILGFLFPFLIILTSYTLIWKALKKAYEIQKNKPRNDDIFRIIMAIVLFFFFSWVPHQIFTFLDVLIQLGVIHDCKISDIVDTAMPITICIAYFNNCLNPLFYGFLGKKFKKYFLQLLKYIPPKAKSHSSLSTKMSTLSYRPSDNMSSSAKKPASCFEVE
Procedure: (§1) The Kd and Bmax values of receptor binding were determined by ^125I-[Sar^1, Ile^8] […] Membranes expressing the WT or mutant AT1 receptors were incubated with 100 pM ^125I-[Sar^1, Ile^8] […] The binding reaction was terminated by filtering the incubation mixture through Whatman GF/C glass filters, and the residues were extensively washed further with binding buffer. The bound ligand fraction was determined from the counts per minute (cpm) remaining on the membrane. Binding kinetics values were determined as previously described.

[2] = molecular target: T2, AT1 V108A mutant receptor (Rattus norvegicus, UniProt P25095, V108A); experiment: competition binding, V108A mutant; settings: for Kd ratio relative to WT (in parentheses): V108A / WT; for Kd: V108A, COS1 membranes, read-out: Binding affinity (Kd)
T2 construct: expressed in transfected cells; host or cells: COS1
T2 sequence (P25095 1-359 V108A): T1 sequence (P25095 1-359 S105A) with A105S, V108A
Procedure: as §1

[3] = molecular target: T3, AT1 S109A mutant receptor (Rattus norvegicus, UniProt P25095, S109A); experiment: competition binding, S109A mutant; settings: for Kd ratio relative to WT (in parentheses): S109A / WT; for Kd: S109A, COS1 membranes, read-out: Binding affinity (Kd)
T3 construct: expressed in transfected cells; host or cells: COS1
T3 sequence (P25095 1-359 S109A): T1 sequence (P25095 1-359 S105A) with A105S, S109A
Procedure: as §1

[4] = molecular target: T4, AT1 F110A mutant receptor (Rattus norvegicus, UniProt P25095, F110A); experiment: competition binding, F110A mutant; settings: for Kd ratio relative to WT (in parentheses): F110A / WT; for Kd: F110A, COS1 membranes, read-out: Binding affinity (Kd)
T4 construct: expressed in transfected cells; host or cells: COS1
T4 sequence (P25095 1-359 F110A): T1 sequence (P25095 1-359 S105A) with A105S, F110A
Procedure: as §1

[5] = molecular target: T5, AT1 C76A/S107C/C289A mutant receptor (Rattus norvegicus, UniProt P25095, C289A/C76A/S107C); experiment: competition binding, C76A/S107C/C289A mutant; settings: for Kd ratio relative to WT (in parentheses): C76A/S107C/C289A / WT; for Kd: C76A/S107C/C289A, COS1 membranes, read-out: Binding affinity (Kd)
T5 construct: expressed in transfected cells; host or cells: COS1
T5 sequence (P25095 1-359 C76A/S107C/C289A): T1 sequence (P25095 1-359 S105A) with C76A, A105S, S107C, C289A
Procedure: as §1

[6] = molecular target: T6, AT1 C76A/F110C/C289A mutant receptor (Rattus norvegicus, UniProt P25095, C289A/C76A/F110C); experiment: competition binding, C76A/F110C/C289A mutant; settings: for Kd ratio relative to WT (in parentheses): C76A/F110C/C289A / WT; for Kd: C76A/F110C/C289A, COS1 membranes, read-out: Binding affinity (Kd)
T6 construct: expressed in transfected cells; host or cells: COS1
T6 sequence (P25095 1-359 C76A/F110C/C289A): T1 sequence (P25095 1-359 S105A) with C76A, A105S, F110C, C289A
Procedure: as §1

| SMILES | Kd [1] | Kd ratio relative to WT (in parentheses) [1] | Kd ratio relative to WT (in parentheses) [2] | Kd [2] | Kd ratio relative to WT (in parentheses) [3] | Kd [3] | Kd ratio relative to WT (in parentheses) [4] | Kd [4] | Kd ratio relative to WT (in parentheses) [5] | Kd [5] | Kd ratio relative to WT (in parentheses) [6] | Kd [6] |
| --- | --- | --- | --- | --- | --- | --- | --- | --- | --- | --- | --- | --- |
| CCCc1nc(C(C)(C)O)c(C(N)=O)n1Cc1ccc(-c2cc(Cc3ccc(O)cc3)ccc2-c2nnn[nH]2)cc1 [R794847] | 37 ± 23 nM | 0.8 fold | 51 fold | 2450 ± 1310 nM | 0.7 fold | 34 ± 11 nM | 1.4 fold | 68 ± 19 nM | 2.1 fold | 102 ± 19 nM | 2.6 fold | 126 ± 13 nM |
| CCCc1nc(C(C)(C)O)c(C(N)=O)n1Cc1ccc(-c2ccccc2-c2nnn[nH]2)cc1 [R239470] | 3.2 ± 2 nM | 4.0 fold | 2.0 fold | 1.6 ± 0.8 nM | 1.1 fold | 0.9 ± 0.2 nM | 1.5 fold | 1.2 ± 0.3 nM | 2.3 fold | 1.8 ± 0.4 nM | 3.0 fold | 2.4 ± 1.1 nM |
| CCCc1nc(C(C)(C)O)c(C(=O)O)n1Cc1ccc(-c2ccccc2-c2nnn[nH]2)cc1 [Olmesartan, olmesartan, reference compound] | 6.7 ± 3.8 nM | – | 2.1 fold | 4.8 ± 2 nM | 1.1 fold | 2.5 ± 0.8 nM | 1.1 fold | 2.6 ± 0.5 nM | 2.7 fold | 6.2 ± 3.2 nM | 2.9 fold | 6.6 ± 2.4 nM |
